Experiments:
recombinant NL4-3 virus = test: HIV cell culture assay (antiviral activity, luciferase readout in MT-2 cells); type: cell-based; conditions: Human immunodeficiency virus 1, NL43, MT2
How it was run: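 MT-2 cells infected for 4-5 days with NL4-3 reference virus carrying Renilla luciferase in place of part of nef, in presence of serial compound dilutions. Luciferase activity read with live-cell substrate. EC50 derived from median effect equation, slope parameter m.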

[1] = Compound cytotoxicity, XTT-based colorimetric assay; type: cell-based; conditions: human; uninfected MT2 cells, day 4, XTT; read-out: CC50
How it was run: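 Run under the antiviral-assay protocol but without virus. Viability was read on day 4 and CC50 values were derived from the readout.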

Compound	EC50 (recombinant NL4-3 virus)	CC50 at 4 days [1]
CCCS(=O)(=O)Nc1nn(C)c2c(-n3c([C@H](Cc4cc(F)cc(F)c4)NC(=O)Cn4nc(C(F)F)c5c4C(F)(F)[C@@H]4C[C@H]54)nc4cc(N5CCOCC5)ccc4c3=O)ccc(Cl)c12 (atropisomer, axis not shown; (P)) [Example 66, N—((S)-1-((3P)-3-(4-chloro-1-methyl-3-(propylsulfonamido)-1H-indazol-7-yl)-7-morpholino-4-oxo-3,4-dihydroquinazolin-2-yl)-2-(3,5-difluorophenyl)ethyl)-2-((3bS,4aR)-3-(difluoromethyl)-5,5-difluoro-3b,4,4a,5-tetrahydro-1H-cyclopropa[3,4]cyclopenta[1,2-c]pyrazol-1-yl)acetamide]	0.066 nM	> 500 nM
C[C@@H]1CN(c2ccc3c(=O)n(-c4ccc(Cl)c5c(NS(C)(=O)=O)nn(CC(F)F)c45)c([C@H](Cc4cc(F)cc(F)c4)NC(=O)Cn4nc(C(F)(F)F)c5ccccc54)nc3c2)C[C@H](C)O1 (atropisomer, axis not shown; (P)) [Example 43, N—((S)-1-((3P)-3-(4-chloro-1-(2,2-difluoroethyl)-3-(methylsulfonamido)-1H-indazol-7-yl)-7-((2S,6R)-2,6-dimethylmorpholino)-4-oxo-3,4-dihydroquinazolin-2-yl)-2-(3,5-difluorophenyl)ethyl)-2-(3-(trifluoromethyl)-1H-indazol-1-yl)acetamide]	1.2 nM	> 500 nM
O=C(Cn1nc(C(F)F)cc1C1CC1)N[C@@H](Cc1cc(F)cc(F)c1)c1nc2cc(N3CCCCC3)ccc2c(=O)n1-c1ccc(Cl)c2c(NS(=O)(=O)C3CC3)nn(CC(F)F)c12 (atropisomer, axis not shown; (P)) [Example 39, (S)—N-(1-((3P)-3-(4-chloro-3-(cyclopropanesulfonamido)-1-(2,2-difluoroethyl)-1H-indazol-7-yl)-4-oxo-7-(piperidin-1-yl)-3,4-dihydroquinazolin-2-yl)-2-(3,5-difluorophenyl)ethyl)-2-(5-cyclopropyl-3-(difluoromethyl)-1H-pyrazol-1-yl)acetamide]	3.72 nM	> 1000 nM
COC1CCCN(c2ccc3c(=O)n(-c4ccc(Cl)c5c(NS(C)(=O)=O)nn(C)c45)c([C@H](Cc4cc(F)cc(F)c4)NC(=O)Cn4nc(C(F)F)c5c4C(F)(F)[C@@H]4C[C@H]54)nc3c2)C1 (stereo partly drawn) [Example 29, N-((1S)-1-((3P)-3-(4-chloro-1-methyl-3-(methylsulfonamido)-1H-indazol-7-yl)-7-(3-methoxypiperidin-1-yl)-4-oxo-3,4-dihydroquinazolin-2-yl)-2-(3,5-difluorophenyl)ethyl)-2-((3bS,4aR)-3-(difluoromethyl)-5,5-difluoro-3b,4,4a,5-tetrahydro-1H-cyclopropa[3,4]cyclopenta[1,2-c]pyrazol-1-yl)acetamide]	0.052 nM	> 500 nM
C[C@@H]1CN(c2ccc3c(=O)n(-c4ccc(Cl)c5c(NS(C)(=O)=O)nn(C)c45)c([C@H](Cc4cc(F)cc(F)c4)NC(=O)Cn4nc(C(F)(F)F)c5c4C(F)(F)[C@@H]4C[C@H]54)nc3c2)C[C@H](C)O1 (atropisomer, axis not shown; (P)) [Example 54, N—((S)-1-((3P)-3-(4-chloro-1-methyl-3-(methylsulfonamido)-1H-indazol-7-yl)-7-((2S,6R)-2,6-dimethylmorpholino)-4-oxo-3,4-dihydroquinazolin-2-yl)-2-(3,5-difluorophenyl)ethyl)-2-((3bS,4aR)-5,5-difluoro-3-(trifluoromethyl)-3b,4,4a,5-tetrahydro-1H-cyclopropa[3,4]cyclopenta[1,2-c]pyrazol-1-yl)acetamide]	0.073 nM	> 500 nM
C[C@@H]1CN(c2ccc3c(=O)n(-c4ccc(Cl)c5c(NS(C)(=O)=O)nn(CC(F)(F)F)c45)c([C@H](Cc4cc(F)cc(F)c4)NC(=O)Cn4nc(C(F)(F)F)c5c4C(F)(F)[C@@H]4C[C@H]54)nc3c2)C[C@H](C)O1 (atropisomer, axis not shown; (P)) [Example 61, N—((S)-1-((3P)-3-(4-chloro-3-(methylsulfonamido)-1-(2,2,2-trifluoroethyl)-1H-indazol-7-yl)-7-((2S,6R)-2,6-dimethylmorpholino)-4-oxo-3,4-dihydroquinazolin-2-yl)-2-(3,5-difluorophenyl)ethyl)-2-((3bS,4aR)-5,5-difluoro-3-(trifluoromethyl)-3b,4,4a,5-tetrahydro-1H-cyclopropa[3,4]cyclopenta[1,2-c]pyrazol-1-yl)acetamide]	0.084 nM	> 500 nM
O=C(Cn1nc(C(F)F)cc1C(F)F)N[C@@H](Cc1cc(F)cc(F)c1)c1nc2cc(N3CCCCC3)ccc2c(=O)n1-c1ccc(Cl)c2c(NS(=O)(=O)C3CC3)nn(CC(F)F)c12 (atropisomer, axis not shown; (P)) [Example 37, (S)-2-(3,5-bis(difluoromethyl)-1H-pyrazol-1-yl)-N-(1-((3P)-3-(4-chloro-3-(cyclopropanesulfonamido)-1-(2,2-difluoroethyl)-1H-indazol-7-yl)-4-oxo-7-(piperidin-1-yl)-3,4-dihydroquinazolin-2-yl)-2-(3,5-difluorophenyl)ethyl)acetamide]	2.34 nM	> 1000 nM
Cn1nc(NS(C)(=O)=O)c2c(Cl)ccc(-n3c([C@H](Cc4cc(F)cc(F)c4)NC(=O)Cn4nc(C(F)F)c5c4C(F)(F)[C@@H]4C[C@H]54)nc4cc(NCc5ccccc5)ccc4c3=O)c21 (atropisomer, axis not shown; (P)) [Example 20, N—((S)-1-(7-(benzylamino)-(3P)-3-(4-chloro-1-methyl-3-(methylsulfonamido)-1H-indazol-7-yl)-4-oxo-3,4-dihydroquinazolin-2-yl)-2-(3,5-difluorophenyl)ethyl)-2-((3bS,4aR)-3-(difluoromethyl)-5,5-difluoro-3b,4,4a,5-tetrahydro-1H-cyclopropa[3,4]cyclopenta[1,2-c]pyrazol-1-yl)acetamide]	0.38 nM	> 1000 nM
COC1CCN(c2ccc3c(=O)n(-c4ccc(Cl)c5c(NS(C)(=O)=O)nn(C)c45)c([C@H](Cc4cc(F)cc(F)c4)NC(=O)Cn4nc(C(F)F)c5c4C(F)(F)[C@@H]4C[C@H]54)nc3c2)CC1 (atropisomer, axis not shown; (P)) [Example 28, N—((S)-1-((3P)-3-(4-chloro-1-methyl-3-(methylsulfonamido)-1H-indazol-7-yl)-7-(4-methoxypiperidin-1-yl)-4-oxo-3,4-dihydroquinazolin-2-yl)-2-(3,5-difluorophenyl)ethyl)-2-((3bS,4aR)-3-(difluoromethyl)-5,5-difluoro-3b,4,4a,5-tetrahydro-1H-cyclopropa[3,4]cyclopenta[1,2-c]pyrazol-1-yl)acetamide]	0.12 nM	> 500 nM
Cn1nc(NS(C)(=O)=O)c2c(Cl)ccc(-n3c([C@H](Cc4cc(F)cc(F)c4)NC(=O)Cn4nc(C(F)F)c5c4C(F)(F)[C@@H]4C[C@H]54)nc4cc(N5CCS(=O)(=O)CC5)ccc4c3=O)c21 (atropisomer, axis not shown; (P)) [Example 13, N—((S)-1-((3P)-3-(4-chloro-1-methyl-3-(methylsulfonamido)-1H-indazol-7-yl)-7-(1,1-dioxidothiomorpholino)-4-oxo-3,4-dihydroquinazolin-2-yl)-2-(3,5-difluorophenyl)ethyl)-2-((3bS,4aR)-3-(difluoromethyl)-5,5-difluoro-3b,4,4a,5-tetrahydro-1H-cyclopropa[3,4]cyclopenta[1,2-c]pyrazol-1-yl)acetamide]	0.468 nM	> 10000 nM
C[C@@H]1CN(c2ccc3c(=O)n(-c4ccc(Cl)c5c(NS(=O)(=O)C6CC6)nn(CC(F)(F)F)c45)c([C@H](Cc4cc(F)cc(F)c4)NC(=O)Cn4nc(C(F)F)c5c4C(F)(F)[C@@H]4C[C@H]54)nc3c2)C[C@H](C)O1 (atropisomer, axis not shown; (P)) [Example 62, N—((S)-1-((3P)-3-(4-chloro-3-(cyclopropanesulfonamido)-1-(2,2,2-trifluoroethyl)-1H-indazol-7-yl)-7-((2S,6R)-2,6-dimethylmorpholino)-4-oxo-3,4-dihydroquinazolin-2-yl)-2-(3,5-difluorophenyl)ethyl)-2-((3bS,4aR)-3-(difluoromethyl)-5,5-difluoro-3b,4,4a,5-tetrahydro-1H-cyclopropa[3,4]cyclopenta[1,2-c]pyrazol-1-yl)acetamide]	0.067 nM	> 500 nM
CN1CCN(c2ccc3c(=O)n(-c4ccc(Cl)c5c(NS(C)(=O)=O)nn(C)c45)c([C@H](Cc4cc(F)cc(F)c4)NC(=O)Cn4nc(C(F)F)c5c4C(F)(F)[C@@H]4C[C@H]54)nc3c2)CC1 (atropisomer, axis not shown; (P)) [Example 11, N—((S)-1-((3P)-3-(4-chloro-1-methyl-3-(methylsulfonamido)-1H-indazol-7-yl)-7-(4-methylpiperazin-1-yl)-4-oxo-3,4-dihydroquinazolin-2-yl)-2-(3,5-difluorophenyl)ethyl)-2-((3bS,4aR)-3-(difluoromethyl)-5,5-difluoro-3b,4,4a,5-tetrahydro-1H-cyclopropa[3,4]cyclopenta[1,2-c]pyrazol-1-yl)acetamide]	0.117 nM	> 10000 nM
C[C@@H]1CN(c2ccc3c(=O)n(-c4ccc(Cl)c5c(NS(C)(=O)=O)nn(CC(F)F)c45)c([C@H](Cc4cc(F)cc(F)c4)NC(=O)Cn4nc(C5CC5)c5ccccc54)nc3c2)C[C@H](C)O1 (atropisomer, axis not shown; (P)) [Example 44, N—((S)-1-((3P)-3-(4-chloro-1-(2,2-difluoroethyl)-3-(methylsulfonamido)-1H-indazol-7-yl)-7-((2S,6R)-2,6-dimethylmorpholino)-4-oxo-3,4-dihydroquinazolin-2-yl)-2-(3,5-difluorophenyl)ethyl)-2-(3-cyclopropyl-1H-indazol-1-yl)acetamide]	0.59 nM	> 500 nM

Source: US20210395262A1, “INHIBITORS OF HUMAN IMMUNODEFICIENCY VIRUS REPLICATION” (ViiV HEALTHCARE UK (NO.5) LIMITED, priority 2018, published 2021)
